Reference: patent US11492325B2, “Compounds as inhibitors of sodium channels” (Human BioMolecular Research Institute, priority 2016, dated 2022)
Values joined by “and” are separate entries in the source; they are usually repeats but may differ in a detail not shown here. Equal values may be shown once. Read-outs that look alike come from different tables or passages of the source.

Experiments:
[1] = target: T1, hERG potassium channel (IKr) (Homo sapiens, UniProt Q12809); assay: Automated patch clamp, hERG (IKr) expressed in CHO cells; settings: for IC50: hERG (IKr) IC50, CHO cells
[2] = system: normal human induced pluripotent stem cell (hiPSC) cardiomyocyte; settings: for WT-Fold Prolongation: APD
[3] = Solubility (water; 10:30:60% DMSO:PEG400:water vehicle); format: physicochemical
[4] = target: T1, hERG potassium channel (IKr)
[5] = system: cardiomyocytes derived from hiPSCs from a LQTS3 patient
Male BALBc mice = system: Male BALBc mice
Source text: Male BALBc mice (20-22 g) were used throughout these studies. The animals were maintained in a temperature-controlled room with 12-hr periods of light and darkness and had continuous access to water and animal food. […] Groups contained 2-4 animals.

[6] = target: Nav1.5 sodium channel, peak current (INaP) (Homo sapiens, UniProt Q14524, form not given); assay: in vitro
Procedure, shortened: (§1)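 Conventional whole-cell patch clamp was performed on HEK293 cells transfected with Nav1.5 and plated on 0.1% gelatin-coated dishes. Values were reported as IC50 ± STD.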

[7] = target: Nav1.5 sodium channel transfected into HEK293 cells (Homo sapiens, UniProt Q14524); assay: Patch clamp electrophysiology, peak (INaP) and late (INaL) sodium current in transfected cells
Procedure, shortened: as §1

[8] = Metabolism in human hepatic S9; settings: for % Metabolism Human S9: 0.5 mg of protein
Protocol: (§2) A typical incubation contained rat, mouse, dog or human liver microsomes (0.4-0.5 mg of protein), 100 mM potassium phosphate buffer (pH7.4), 50 μM test compound, an NADPH-generating system consisting of 0.5 mM NADP^+, 0.5 mM glucose-6-phosphate, 1 IU/mL glucose-6-phosphate dehydrogenase, 1 mg/mL diethylenetriaminepentaaceticacid (DETAPAC), and 3 mM MgCl2 in a final incubation volume of 0.25 mL. […] After centrifugation at 3000 rpm for 5 min, the organic fraction was collected, the solvent was removed with a stream of argon and the residue was reconstituted in 125 μL of MeOH and 125 μL H2O, mixed thoroughly, centrifuged at 13,000 rpm for 5 min and analyzed by high performance liquid chromatography. Samples were run on a Hitachi D-7000 HPLC system using a L-7100 analytical pump, L-7400 UV-Visible variable wavelength detector, and L-7600 automatic sample injector. […] Disappearance of the analyte was monitored over time. A plot of the area under the curve for the normalized analyte versus time afforded the half-life values and kapp.
(§3) Microsomes contain CYPs and FMO metabolic enzymes. S9 contains soluble enzymes (i.e., aldehyde oxidase, MAO, etc.).

[9] = Metabolism in dog hepatic S9; format: in vitro ADME; settings: 0.5 mg of protein
Protocol: as §2, §3

[10] = Metabolism in mouse hepatic S9; settings: for % Metabolism Mouse S9: 0.5 mg of protein
Protocol: as §2, §3

[11] = Metabolism in rat hepatic S9; format: in vitro ADME; settings: 0.5 mg of protein
Protocol: as §2, §3

[12] = Metabolic stability in human liver microsomes; format: in vitro ADME
Protocol: as §2

[13] = target: Na+ channel currents in LQT3 patient-derived cardiomyocytes (Homo sapiens, UniProt Q14524); assay: Whole cell patch clamp of Na+ currents (INaP, INaL) in hIPSC LQT3 patient-derived cardiomyocytes; format: cell-based; settings: for IC50: whole-cell voltage clamp, steps -80 mV to +40 mV, table title says transfected CHO cells
Protocol: Patch clamp recordings from hIPSC LQT3 patient-derived cardiomyocytes for Na+ channel currents were recorded in response to computed voltage waveforms that simulated adult ventricular action potentials.
The basis for LQT3 is a mutation in SCN5a that encodes the voltage-gated Na channel responsible for cardiac action potential. The Na current (INa) has peak and late components: the peak component initiates the action potential but as voltage rises, the channel normally inactivates. […] The LQT3 mutation impairs inactivation. The late component is then enlarged, resulting in action potential prolongation. […] Whole cell patch clamp electrophysiology experiments in LQTS3 cardiomyocytes helped determine the functional activity of drug candidates for inhibition of the late sodium current in the cells. Thus, we tested compounds for Peak (INaP) and Late (INaL) components. They were recorded in a “whole-cell” voltage-clamp mode configuration in response to voltage stimulation steps from −80 mV to +40 mV and their IC50 values determined (Table 1).

CYP2D6 = CYP2D6 (Homo sapiens, UniProt P10635); assay: Metabolism with highly purified CYP2D6 (HPLC); settings: 50 min incubation
Protocol: as §2
Accordingly, we examined the metabolism of leads with highly purified CYPs with an HPLC method (Example 8).

[14] = system: cardiomyocytes derived from hiPSCs from a LQTS3 patient; assay: cells; settings: Homo sapiens, Cardiomyocyte
[15] = Chemical stability in PBS buffer at pH 7.4 or 3.0, 37° C.; format: physicochemical; settings: pH 7.4, 100 μM in PBS, 1% Ethanol, read-out: Half-Life @ pH 7.4 and 37° C.
Protocol: A typical incubation contained 100 μM of the test compound prepared in PBS buffer (pH 7.4 or 3.0, 50 mM) with 1% Ethanol. The test compounds were incubated at 37° C. An aliquot from incubations was taken at various times and injected onto an RP-HPLC system as described above. Disappearance of the analyte was monitored over time.

CYP3A4 = CYP3A4 (Homo sapiens, UniProt P08684); assay: Metabolism with highly purified CYP3A4 (HPLC); settings: 3 pmol enzyme/incubation; 30 mins, 37° C.
Human FMO1 = target: T2, Human FMO1 (Homo sapiens, UniProt Q01740); assay: Metabolism with human FMO1 (nmol metabolism/incubation); settings: 15 μg enzyme/incubation; 30 mins, 37° C.
T2 sequence (Q01740 1-532): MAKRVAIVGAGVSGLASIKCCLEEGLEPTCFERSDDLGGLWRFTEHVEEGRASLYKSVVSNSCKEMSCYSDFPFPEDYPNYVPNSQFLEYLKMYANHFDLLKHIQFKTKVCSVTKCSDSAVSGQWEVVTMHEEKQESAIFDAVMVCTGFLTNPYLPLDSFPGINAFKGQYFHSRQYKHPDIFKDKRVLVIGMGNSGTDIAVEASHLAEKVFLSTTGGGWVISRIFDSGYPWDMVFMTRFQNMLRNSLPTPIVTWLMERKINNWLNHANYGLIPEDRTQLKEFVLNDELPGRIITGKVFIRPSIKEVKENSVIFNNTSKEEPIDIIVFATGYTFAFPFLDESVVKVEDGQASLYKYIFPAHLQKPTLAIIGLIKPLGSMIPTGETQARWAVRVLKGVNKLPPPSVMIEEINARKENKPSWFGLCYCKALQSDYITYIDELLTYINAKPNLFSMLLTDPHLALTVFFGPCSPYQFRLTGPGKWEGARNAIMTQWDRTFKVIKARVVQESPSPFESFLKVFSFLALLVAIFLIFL

[16] = 'No AP' wraps to 'No AP shortening'
[17] = 0.4 mg protein/incubation, 30 mins, 37° C.

Chain of CYP2D6 (P10635 whole entry): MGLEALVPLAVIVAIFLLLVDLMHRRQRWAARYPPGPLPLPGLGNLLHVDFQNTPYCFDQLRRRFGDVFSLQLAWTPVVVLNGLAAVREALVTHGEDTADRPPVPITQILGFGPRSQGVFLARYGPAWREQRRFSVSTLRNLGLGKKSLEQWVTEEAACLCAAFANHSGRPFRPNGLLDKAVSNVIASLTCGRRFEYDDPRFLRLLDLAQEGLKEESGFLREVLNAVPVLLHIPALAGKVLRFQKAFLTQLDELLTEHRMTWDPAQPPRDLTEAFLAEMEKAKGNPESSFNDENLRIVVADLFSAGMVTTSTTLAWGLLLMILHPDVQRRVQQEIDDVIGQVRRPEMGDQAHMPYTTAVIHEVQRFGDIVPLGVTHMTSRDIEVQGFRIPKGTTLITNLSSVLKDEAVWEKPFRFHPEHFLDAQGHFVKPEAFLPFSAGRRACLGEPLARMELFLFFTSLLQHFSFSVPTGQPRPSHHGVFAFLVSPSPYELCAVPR
T1 sequence (Q12809 whole entry): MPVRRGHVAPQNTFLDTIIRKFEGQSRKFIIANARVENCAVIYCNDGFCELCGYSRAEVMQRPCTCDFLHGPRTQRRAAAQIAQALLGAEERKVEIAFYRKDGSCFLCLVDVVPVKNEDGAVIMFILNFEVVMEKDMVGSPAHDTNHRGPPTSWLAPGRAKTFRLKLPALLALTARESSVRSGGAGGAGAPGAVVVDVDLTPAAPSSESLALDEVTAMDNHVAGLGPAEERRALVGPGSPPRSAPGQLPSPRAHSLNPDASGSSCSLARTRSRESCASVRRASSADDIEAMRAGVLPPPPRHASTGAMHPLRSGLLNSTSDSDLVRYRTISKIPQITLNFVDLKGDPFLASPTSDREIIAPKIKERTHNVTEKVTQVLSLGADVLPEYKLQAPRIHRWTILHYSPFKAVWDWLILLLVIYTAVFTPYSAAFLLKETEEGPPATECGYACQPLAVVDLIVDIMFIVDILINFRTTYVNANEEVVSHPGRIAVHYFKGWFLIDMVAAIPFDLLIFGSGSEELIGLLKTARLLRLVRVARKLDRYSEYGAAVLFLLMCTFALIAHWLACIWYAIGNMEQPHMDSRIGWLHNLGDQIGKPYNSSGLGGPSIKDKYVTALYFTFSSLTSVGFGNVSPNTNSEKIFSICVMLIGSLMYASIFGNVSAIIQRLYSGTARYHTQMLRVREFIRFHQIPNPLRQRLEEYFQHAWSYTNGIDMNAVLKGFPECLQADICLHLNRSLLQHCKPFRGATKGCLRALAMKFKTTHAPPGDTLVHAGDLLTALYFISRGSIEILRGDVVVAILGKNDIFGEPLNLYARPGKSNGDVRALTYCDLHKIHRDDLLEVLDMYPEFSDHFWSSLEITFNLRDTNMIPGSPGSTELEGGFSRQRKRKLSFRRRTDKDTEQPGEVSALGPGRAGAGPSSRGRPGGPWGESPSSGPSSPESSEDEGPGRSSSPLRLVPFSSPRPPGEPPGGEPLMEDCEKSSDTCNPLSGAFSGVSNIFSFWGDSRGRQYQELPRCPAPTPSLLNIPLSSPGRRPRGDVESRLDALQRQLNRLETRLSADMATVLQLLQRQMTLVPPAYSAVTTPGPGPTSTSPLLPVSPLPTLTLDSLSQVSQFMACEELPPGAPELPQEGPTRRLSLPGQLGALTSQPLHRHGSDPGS
Chain of CYP3A4 (P08684 whole entry): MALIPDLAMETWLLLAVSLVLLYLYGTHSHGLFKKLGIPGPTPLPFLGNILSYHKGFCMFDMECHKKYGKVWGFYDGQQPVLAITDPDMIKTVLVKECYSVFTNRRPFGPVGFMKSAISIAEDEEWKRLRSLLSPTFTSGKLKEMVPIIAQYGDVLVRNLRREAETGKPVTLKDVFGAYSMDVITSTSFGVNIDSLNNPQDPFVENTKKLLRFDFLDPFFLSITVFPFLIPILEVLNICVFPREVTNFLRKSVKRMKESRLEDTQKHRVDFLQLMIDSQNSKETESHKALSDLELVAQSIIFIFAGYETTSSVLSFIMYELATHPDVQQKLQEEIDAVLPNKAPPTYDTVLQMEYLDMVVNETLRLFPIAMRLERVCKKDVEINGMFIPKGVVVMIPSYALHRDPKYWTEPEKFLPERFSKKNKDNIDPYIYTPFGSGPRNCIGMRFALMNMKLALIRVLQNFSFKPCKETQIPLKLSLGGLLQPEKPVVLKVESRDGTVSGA

COCCNC(COc1cc(C)cc(C)c1)c1ccccc1.Cl (stereo not drawn) [Compound 69]
IC50 [1]: 5.1 µM
IC50 ([1]; Example 2): 5.1 µM
WT-Fold Prolongation ([2]; normal hiPSC cardiomyocytes): None
Cessation of Beating ([2]; human, 5 min): 200 µM
WT-Prolongation Dose ([2]; normal hiPSC cardiomyocytes): None
solubility (in words) [3]: good solubility
DNaP/Kr [4]: 7.5
LQT-IC50 (uM)-Shortening ([5]; APD shortening, LQT3 cardiomyocytes): None
LQT-Fold Shortening ([5]; LQT3 cardiomyocytes): None
LQT-Shortening Dose ([5]; LQT3 cardiomyocytes): None
LQT-Cessation Dose ([5]; human, 5 min): 200 µM
behavioral/toxic effects at 200 mg/kg (Male BALBc mice; mice, i.p.): slight lethargy
tolerability (Male BALBc mice; mice, i.p., 30-100 mg/kg, 24 hr): well-tolerated
IC50 ([6]; Peak Na+ (INaP) IC50): 38.3 µM
DNap/NaL ([7]; ratio peak IC50/late IC50): 45.3
DNap/NaL ([7]; ratio peak/late IC50, Example 2): 50.5

NC(COc1cc(C(F)(F)F)cc(C(F)(F)F)c1)c1ccccc1 (stereo not drawn) [drawing 305]
% Metabolism Human S9 [8]: 41.1 ± 28.9%
% Metabolism Dog S9 [9]: 25.6 ± 17.9%
% Metabolism Mouse S9 [10]: 11.6 ± 3.0%
% Metabolism Rat S9 [11]: 2.1 ± 1.4%

Cc1cc(C)cc(OCC(N)c2ccccc2)c1.Cl (racemic) [Compound 70, (rac)-(+)-2-(3,5-dimethylphenoxy)-1-phenylethanamine hydrochloride]
metabolism in human liver microsomes judged by HPLC [12]: metabolized
half-life at 50 μM ([12]; human, liver microsomes, pH 7.4, liver microsomes + NADPH, species (human), read-out: metabolic stability in liver microsomes T1/2): > 0.0417 days
Ratio Mex INaL/Lead INaL ([13]; potency relative to Mexiletine): 94.4
IC50 ([13]; read-out: IC50 for INaL): 0.54 µM
IC50 ([13]; read-out: IC50 for INaP): 171 µM
nmols metabolized, CYP2D6 (CYP2D6): 4.6 nmols
nmols/μg CYP, CYP2D6 (CYP2D6): .345 nmols/μg CYP
pmols product/μg CYP/min, CYP2D6 (CYP2D6): 6.92 pmols product/μg CYP/min
IC50 [1]: 6.2 µM
IC50 ([1]; Example 2): 6 µM and 6.2 µM
DKr/NaL ([1]; ratio hERG IC50/late Na IC50): 34.0
DNaP/Kr ([1]; ratio peak Na IC50/hERG IC50): 3.0
DKr/NaL ([1]; ratio, Example 2): 34.0
DNaP/Kr ([1]; ratio, Example 2): 3.0
WT-Prolong. Dose ([2]; 'No AP' wraps to 'No AP Prolong.'): No AP
WT-Fold Prolongation ([2]; normal hiPSC cardiomyocytes): None
WT-Cess. Dose ([2]; deuterated vs non-deuterated): 66 µM
WT-EC50 (μM)-Prolong. ([2]; deuterated vs non-deuterated, 'No AP' wraps to 'No AP prolongation'): No AP
Cessation of Beating ([2]; normal hiPSC cardiomyocytes): 66 µM
WT-Prolongation Dose ([2]; normal hiPSC cardiomyocytes): None
solubility (in words) [3]: good solubility
metabolism in human liver S-9 judged by HPLC [8]: detectably metabolized
LQT-Fold Shortening [5, 16]: 1.279
LQT-Shortening Dose [5, 16]: 7.4 µM
LQT-Cessation Dose ([5]; LQT3 cardiomyocytes): 66 µM
LQT-Fold Shortening ([5]; LQT3 cardiomyocytes): 1.279
LQT-Cess. Dose ([5]; deuterated vs non-deuterated): 66 µM
EC50 ([14]; read-out: LQT-EC50 (μM)-Shortening): < 0.8 µM
IC50 ([14]; read-out: LQT-IC50 (uM)-Shortening): 0.0013 µM
behavioral/toxic effects at 200 mg/kg (Male BALBc mice; mouse, in vivo, ip): slight lethargy
half-life at 100 μM [15]: > 30 days
IC50 [6]: 18.9 µM
IC50 ([6]; Peak Na+ (INaP) IC50): 20.1 µM
DNap/NaL ([7]; ratio peak IC50/late IC50): 103
DNap/NaL ([7]; ratio peak/late IC50, Example 2, hydrochloride): 104 and 100.5

Cc1cccc(C)c1OCC(N)c1ccccc1 (racemic) [Phenyl Mexiletine]
Human S-9, nmol metab./incub. [8, 17]: 1.2 nmol metab./incub.
Mouse S-9, nmol metab./incub. [10, 17]: 2.5 nmol metab./incub.
Human CYP3A4, nmol metab./incub. (CYP3A4): 2.3 nmol metab./incub.
Human FMO1, nmol metab./incub. (Human FMO1): 0.33 nmol metab./incub.

Cc1ccccc1OCC(N)c1ccccc1 (stereo not drawn) [drawing 307]
% Metabolism Human S9 [8]: 7.0 ± 0.1%
% Metabolism Dog S9 [9]: 98.0 ± 28.1%
% Metabolism Mouse S9 [10]: 34.6%
% Metabolism Rat S9 [11]: 97.8 ± 19.5%
